Patent US20150368617A1, “METHOD FOR FORMING ENDOTHELIAL CELLS” (Korea Advanced Institute of Science and Technology (KAIST), priority 2012, published 2015)

Experiments:
[1] = tested on: ICAM2+ ECs; assay: Expansion of purified ICAM2+ ECs for 2 days in 2D Matrigel system; type: cell-based, mouse
Description: FIGS. 14A-14G. ROCK suppression continuously promotes the expansion of ECs. (FIG. 14A) ICAM2+ ECs were further incubated with PBS (Control), Y27632 (10┌ M), VEGF-A (50 ng/ml; VA) or Y27632 (10┌ M) plus VEGF-A (50 ng/ml) for 2 days, and analyses were performed at day 8.5. (FIG. 14B) Immunofluorescence images showing CD144+ EC colonies, ┌ SMA+MCs, and DAPI+ nuclei. Scale bars represent 100┌ m. (FIG. 14C) Representative FACS analysis of CD31+/CD144+ ECs. (FIG. 14D) % of CD31+/CD144+ EC population. Each group, n=3. *p<0.01 versus Control. (FIG. 14E) Relative cell number of ICAM2+ ECs. Each group, n=3. *p<0.01 versus Control; ^#p<0.01 versus VEGF-A. (FIG. 14F) Relative population of CD31+/CD144+ ECs. Population of CD31+/CD144+ ECs grown without VEGF-A and Y27632 was regarded as 100%. Each group, n=3. *p<0.01 versus Control; ^#p<0.01 versus VEGF-A. (FIG. 14G) % of adherent ICAM2+ECs onto plate at 6 hrs. Each group, n=3. *p<0.05 versus VEGF-A.
E14tg2a ESC cell line was a generous gift from Dr. Jun K. Yamashita (Kyoto University), and R1 ESC cell line was purchased from American Type Cell Culture. Mouse iPSC derived from FVB strain was a generous gift from Drs. Hyun-Jai Cho and Hyo-Soo Kim (Seoul National University Hospital). […]

[2] = tested on: ICAM2+ ECs; assay: Cell adhesion assay, ICAM2+ ECs; type: cell-based, mouse; conditions: 6 hrs after plating; in the presence of VEGF-A
Description: Sorted Flk1+ MPCs or ICAM2+ ECs were plated onto Matrigel coated plates at a density of 10,000 cells/cm^2. Six hrs after plating, non-adherent cells were removed by washing and the cell number of adherent cells was counted following trypsinization. The percentage of adherent cells was calculated as (counted cell number/initial seeded cell number)×100.

With C[C@@H](N)[C@H]1CC[C@H](C(=O)Nc2ccncc2)CC1 [Y27632] the “decrease of CD31+/CD144+ EC population from the initial population of ˜90%” value ([1]; day 8.5, agent alone, ˜30% without either agent) was ~22%, the “increase of total cell number” value ([1]; day 8.5, compared to Control without VEGF-A and Y27632) was ~1.8 fold and the “adhesion of ICAM2+ ECs onto the plate” value [2] was 1.3 fold.
